# In PubChem BioAssay (NCI):
#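 Exposure lasted 48 hours, with cells grown in 96-well plates and compounds tested at five concentrations. The concentration for 50% growth inhibition is given as GI50. TGI is the concentration that stops growth completely.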
# Tested on: MDA-MB-468 breast
# Assay: DTP human tumour cell line panel, 48 h
Structure (SMILES),GI50 [nM],TGI [µM]
Nc1nccc(C#Cc2cncnc2Nc2ccc(OCc3cccc(F)c3)c(Cl)c2)n1,1510,4.37
c1ccc(CNc2nc(Nc3ccc(-c4nc5ccccc5[nH]4)cc3)c3cn[nH]c3n2)cc1,2050,4.81
Cn1cc(-c2ccc3c(c2)ncn3-c2ccc(CC(=O)Nc3cc(C(C)(C)C)on3)cc2)cn1,2830,16.5
CC1OC(OC2C(OC3CCC4(C)C(CCC5(C)C4CC=C4C6CC(C)(C)CCC6(CO)C(O)CC45C)C3(C)C)OC(C(=O)O)C(OC3OC(COC4OC(CO)C(O)C(O)C4O)C(O)C(O)C3O)C2O)C(O)C(O)C1O (configuration not stated),1850,6.81
Cn1cccc1C1CC(=O)N(CCC[Se]C#N)C1=O (configuration not stated),2680,9.29
COc1cc2c(c(Br)c1N)-c1cc(Br)c(N)cc1C2=O,17.2,0.0421
c1ccc(COc2ccc(Nc3ncnc4ccc(-c5ccco5)cc34)cc2)cc1,480,5.32
CC1(C)CCC(CN2CCN(c3ccc(C(=O)NS(=O)(=O)c4ccc(NCC5CCOCC5)c([N+](=O)[O-])c4)c(Oc4cnc5[nH]ccc5c4)c3)CC2)=C(c2ccc(Cl)cc2)C1,2150,7.16
COc1cccc(C2C3=C(COC3=O)N(CCO)c3cc4c(cc32)CCC4)c1 (configuration not stated),21.6,0.177
O=S(=O)(Nc1ccc(-c2nc(-c3cccc(O)c3)c(-c3ccnc(Br)c3)[nH]2)cc1)c1ccccc1,1850,5.47
Cn1cc(-c2nonc2-c2cn(C)c3ccc(Br)cc23)c2ccccc21,1560,5.17
CCN1C(=O)N(CC)C2C1NN=c1s/c(=C\c3ccc([N+](=O)[O-])cc3)c(=O)n12 (configuration not stated),409,7.14
C=C1CCC2C3(C)COC(c4cccc(Cl)c4)OC3CCC2(C)C1/C=C/C1=CCOC1=O (configuration not stated),1420,7.82
Cc1ccc2c(c1)/C(=N\N=C/c1cn(C(C)C)c3ccccc13)C(=O)N2,1840,> 100
O=C(Nc1ccc(-n2cc(-c3ccncc3)c(-c3ccc(O)c(Cl)c3)n2)cc1)c1ccc(Cl)c(Cl)c1,4250,> 32.5
COc1cc2nc(-c3ccc(Cl)cc3)cc(OCCCN3CCC(O)CC3)c2cc1OC,1560,4.04
O=C(/C=C/c1cccnc1)/C=C/c1cccnc1,762,2.22
O=[N+]([O-])c1ccc([I+]c2ccccc2)cc1,1250,4.13
Cc1nc(N=C(N)N)nc2ccc3ccccc3c12,430,2.06
Cn1cc(-c2csc(-c3cn(C)c4ncccc34)n2)c2ccccc21,445,6.6
C[C@@H](Oc1cc(-n2cnc3ccc(OCC4CCN(C)CC4)cc32)sc1C(N)=O)c1ccccc1C(F)(F)F,44.2,0.192
